Columns and labels:
cancer cell lines = test: MTT assay, panel of cancer cell lines; assay type: cell-based; conditions: 72 h, summary over the cancer cell panel, read-out: IC50 for most cancer lines
Procedure: (§1) The cytotoxic potential of the synthesized compounds was investigated using the MTT assay after 72 h incubation with a panel of human and murine cancer cell lines, including colorectal carcinoma (HCT116), estrogen receptor-positive breast adenocarcinoma (MCF-7), triple-negative breast adenocarcinoma (MDA-MB-231), epidermoid carcinoma (KB3-1), myeloid leukemia (K562), and glioblastoma (U373), and mouse breast carcinoma (4T1) cells. To assess the selectivity of the compounds, pseudo-normal cell lines—human keratinocytes (HaCaTs) and mouse fibroblasts (NIH3T3s)—were also tested under the same conditions.
(§2) The substrate cells were seeded at a density of 5000 cells per 100 µL, while suspension K562 cells were seeded at 15,000 cells per 100 µL in 96-well plates and incubated overnight. Doxorubicin (Dox, Sigma-Aldrich, USA) was used as a reference drug. Studied substances were then added in 100 µL of culture medium, and the cells were further incubated for 72 h. Subsequently, 20 µL of MTT solution (5 mg/mL, Sigma-Aldrich, USA) was added to each well and incubated for 2–4 h. Formazan crystals were then solubilized by adding dimethyl sulfoxide (Sigma-Aldrich, USA). Absorbance was measured using a BioTek ELx800 Absorbance Reader (BioTek Instruments, Inc., Winooski, VT, USA). The results were analyzed and illustrated using GraphPad Prism (version 8.0.1; GraphPad Software, San Diego, CA, USA) and presented as a mean (M) ± standard deviation (SD). The IC50 values of the compounds were determined using nonlinear regression analysis in GraphPad Prism 10.4.2 [40].

U373 cells = test: MTT assay, 72 h, U373; assay type: cell-based; conditions: Homo sapiens, U373 MG, mean ± SD
Procedure: as §1
(§3) Human breast adenocarcinoma cells of MCF-7 and MDA-MB-231 lines, human glioblastoma cells of U373 line, human chronic myelogenous leukemia cells of K562 line, human colorectal carcinoma cells of HCT116 line, and human epidermoid carcinoma cells of KB3-1 line were kindly donated by a Collection of the Institute for Cancer Research at Vienna Medical University (Vienna, Austria). Human keratinocytes of HaCaT line, murine breast carcinoma cells of 4T1 line, and murine fibroblasts of the NIH3T3 line were obtained from the Cell Collection of the R.E. Kavetsky Institute of Experimental Pathology, Oncology and Radiobiology of the National Academy of Sciences of Ukraine (Kyiv, Ukraine). MCF-7, MDA-MB-231, U373, K562, HaCaT, and NIH3T3 cells were cultured in DMEM medium (Sigma-Aldrich, Burlington, MA, USA) supplemented with 2 mM L-glutamine, 4500 mg/L glucose, and 1 mM sodium pyruvate. HCT116 and KB3-1 cells were maintained in RPMI-1640 medium supplemented with 2 mM L-glutamine (Sigma-Aldrich, USA). Both media were supplemented with 10% fetal bovine serum (Sigma-Aldrich, USA). All cell lines were incubated at 37 °C in a humidified atmosphere containing 5% CO2.
as §2

HaCaT cells = test: MTT assay, 72 h, HaCaT (pseudo-normal); assay type: cell-based; conditions: Homo sapiens, mean ± SD
Procedure: as §1, §3, §2

NIH3T3 cells = test: MTT assay, 72 h, NIH3T3 (pseudo-normal); assay type: cell-based; conditions: Mus musculus, mean ± SD
Procedure: as §1, §3, §2

4T1 cells = test: MTT assay, 72 h, 4T1; assay type: cell-based; conditions: Mus musculus, mean ± SD
Procedure: as §1, §3, §2

MDA-MB-231 cells = test: MTT assay, 72 h, MDA-MB-231; assay type: cell-based; conditions: Homo sapiens, mean ± SD
Procedure: as §1, §3, §2

HCT116 cells = test: MTT assay, 72 h, HCT116; assay type: cell-based; conditions: Homo sapiens, HCT-116, mean ± SD
Procedure: as §1, §3, §2

KB3-1 cells = test: MTT assay, 72 h, KB3-1; assay type: cell-based; conditions: Homo sapiens, KB 3-1, mean ± SD
Procedure: as §1, §3, §2

K562 cells = test: MTT assay, 72 h, K562; assay type: cell-based; conditions: Homo sapiens, mean ± SD
Procedure: as §1, §3, §2

MCF-7 cells = test: MTT assay, 72 h, MCF-7; assay type: cell-based; conditions: Homo sapiens, MCF7, mean ± SD
Procedure: as §1, §3
as §2, with “Doxorubicin (Dox, Sigma-Aldrich, USA) was used as a reference drug.” left out

[1] = test system: p53 expression in normal BJ cells; design: method as in PMID 38920636; conditions: normal BJ cells ref 34; cited from earlier work
PPARγ = test system: PPARγ; design: method as in PMID 38920636; conditions: cited from earlier work
[2] = test system: p53 expression in A549 lung cancer cells; design: method as in PMID 38920636; conditions: A549 lung cancer cells ref 34; cited from earlier work

| SMILES | IC50 (cancer cell lines) | IC50 (U373 cells) | IC50 (HaCaT cells) | IC50 (NIH3T3 cells) | IC50 (4T1 cells) | IC50 (MDA-MB-231 cells) | IC50 (HCT116 cells) | IC50 (KB3-1 cells) | IC50 (K562 cells) | IC50 (MCF-7 cells) | p53 expression [1] | PPARγ modulation (PPARγ) | p53 expression [2] |
| --- | --- | --- | --- | --- | --- | --- | --- | --- | --- | --- | --- | --- | --- |
| CC(C)(C)c1ccc(/C=C2\SC3(C(=O)Nc4ccc(F)cc43)N(Cc3ccccc3)C2=O)cc1 (stereo not drawn) [Compound 18, (Z)-3′-Benzyl-5′-(4-(tert-butyl)benzylidene)-5-fluorospiro[indoline-3,2′-thiazolidine]-2,4′-dione] | 6.67 to 8.37 µM | 29.8 ± 0.35 µM | > 100 µM | 98.39 ± 0.66 µM | 46.7 ± 1.19 µM | 6.67 ± 0.15 µM | 8.37 ± 0.51 µM | 7.92 ± 0.65 µM | 37.4 ± 0.49 µM | 6.99 ± 0.16 µM | – | – | – |
| CC(C)c1ccc(/C=C2\SC3(C(=O)Nc4ccccc43)N(c3ccc(Cl)cc3)C2=O)cc1 (stereo not drawn) [Les-3467] | – | – | – | – | – | – | – | – | – | – | increasing its levels | acts as a PPARγ modulator | decreasing it |
| CCOc1ccc(/C=C2\SC3(C(=O)Nc4ccc(Br)cc43)N(c3ccc(Br)cc3)C2=O)cc1 (stereo not drawn) [Compound 14, (Z)-5-Bromo-3′-(4-bromophenyl)-5′-(4-ethoxybenzylidene)spiro[indoline-3,2′-thiazolidine]-2,4′-dione] | > 100 µM | 89.52 ± 0.81 µM | > 100 µM | > 100 µM | > 100 µM | 60.2 ± 0.62 µM | > 100 µM | 19.6 ± 0.23 µM | > 100 µM | > 100 µM | – | – | – |
| COc1ccc(N2C(=O)CSC23C(=O)Nc2ccc(Cl)cc23)cc1 (stereo not drawn) [Compound 1, 5-Chloro-3′-(4-methoxyphenyl)spiro[indoline-3,2′-thiazolidine]-2,4′-dione] | – | 76.7 ± 0.54 µM | 96.7 ± 1.02 µM | 77.6 ± 1.82 µM | 89.4 ± 1.93 µM | 85.3 ± 1.15 µM | > 100 µM | 62.3 ± 0.51 µM | 71.8 ± 7.79 µM | > 100 µM | – | – | – |
| COc1ccc(N2C(=O)/C(=C/c3ccc(N4CCOCC4)cc3)SC23C(=O)Nc2ccc(Cl)cc23)cc1 (stereo not drawn) [Compound 8, (Z)-5-Chloro-3′-(4-methoxyphenyl)-5′-(4-morpholinobenzylidene)spiro[indoline-3,2′-thiazolidine]-2,4′-dione] | > 100 µM | > 100 µM | > 100 µM | > 100 µM | > 100 µM | > 100 µM | > 100 µM | 75.9 ± 4.21 µM | > 100 µM | > 100 µM | – | – | – |
| O=C1CSC2(C(=O)Nc3ccc(Cl)cc32)N1Cc1ccccc1 (stereo not drawn) [Compound 5, 3′-Benzyl-5-chlorospiro[indoline-3,2′-thiazolidine]-2,4′-dione] | – | 76.2 ± 0.8 µM | > 100 µM | > 100 µM | 95.3 ± 1.07 µM | 68.79 ± 0.62 µM | 92.8 ± 1.09 µM | 52.1 ± 0.67 µM | 95.5 ± 2.64 µM | 42.6 ± 1.24 µM | – | – | – |
